Molecules are shown by their SMILES. Like-named read-outs stand apart in the source and are kept apart here.

We go through 17 compounds from patent US5756504A, “Tocolytic oxytocin receptor antagonists” (priority 1996, dated 1998).

The conditions of data set [1]: cited from earlier work.
Data set [2] addresses T1, oxytocin receptor ([^3 H]OT binding, uterine tissue) (Rattus norvegicus, UniProt P70536).
T1 construct: tissue Taconic Farms, Germantown, N.Y. (animals); host or cells: uterus of nonpregnant adult Sprague-Dawley rats pretreated with diethylstilbestrol propionate, crude membranes
T1 sequence (P70536 1-388): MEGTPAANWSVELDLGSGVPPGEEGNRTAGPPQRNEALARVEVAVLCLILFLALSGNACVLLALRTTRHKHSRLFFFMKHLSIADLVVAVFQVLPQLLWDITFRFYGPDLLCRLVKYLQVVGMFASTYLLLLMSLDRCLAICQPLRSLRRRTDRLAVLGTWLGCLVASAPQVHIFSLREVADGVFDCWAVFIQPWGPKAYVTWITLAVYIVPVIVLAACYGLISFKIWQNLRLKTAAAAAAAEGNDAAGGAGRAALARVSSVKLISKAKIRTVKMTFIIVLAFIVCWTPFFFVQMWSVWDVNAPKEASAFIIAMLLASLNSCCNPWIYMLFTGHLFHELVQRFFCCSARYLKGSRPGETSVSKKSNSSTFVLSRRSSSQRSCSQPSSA
Nature of the data set: [3H]oxytocin radioligand binding competition assay, rat uterus. More on the design: species or system rat (Sprague-Dawley). How it is done: RADIOLIGAND BINDING ASSAYS
Ther., 256(1): 304-308 (1991)]. Uterine tissue was taken from nonpregnant adult Sprague-Dawley rats (Taconic Farms, Germantown, N.Y.) pretreated (18-24 h) with diethylstilbestrol propionate (DES; 300 μg/kg, i.p.). Uterine tissue (full thickness) was also taken with informed consent from nonlabor pregnant women undergoing cesarean section at 38 to 39 weeks gestation (Oregon Health Sciences Center, Portland, Oreg.). Liver and kidney medulla samples were taken from male rats and from human surgical and early postmortem donors (National Disease Research Interchange, Philadelphia Pa.; Analytical Biological Services, Wilmington, Del.).
Nonspecific binding was determined using 1 μM unlabeled OT or AVP in their respective assays. The binding reactions were initiated by the addition of tissue preparation and terminated by filtration using a Skatron cell harvester (model 7019, Skatron, Inc., Sterling, Va.). […] The final protein concentration for the various tissues in each assay ranged from 150 to 300 μg/ml [Lowry, P. H.; Rosebrough, N. J.; Farr, A. L.; Randall, R. J.; J. Biol. Chem., 193:265-275 (1951)].
Data is either reported as a given percentage of inhibition at a specified concentration,or if an IC50 was calculated, as a nanomolar concentration.

Another data set relates to uterus. Briefly: uterine contraction in situ in nonpregnant rat. The data set is classed as in vivo, rat (Sprague-Dawley). As to conditions: i.v., DES-pretreated anesthetized rats. How it is done: 2. OT antagonist activity in the nonpregnant rat
The procedure for measuring isometric contraction of the uterus in situ was adapted from that of Chan et al. [1974] as previously described [Pettibone et al., 1989]. Sprague-Dawley rats (200-300 g, Taconic Farms, Germantown, N.Y.) pretreated with DES (0.25 mg/kg, i.p.; 18 h) were anesthetized with urethane (1.75 g/kg, i.p.), a tracheal cannula was inserted, and a femoral vein was cannulated. The left uterine horn was exposed, and the anterior part of the horn was secured with surgical silk to an anchor post. A second ligature about 3 cm posterior to the first tie was connected to a force transducer and maintained at a tension of 1 g. Signals from the transducer were amplified and recorded. The contractile response of the uterus to OT was quantified by computerized measurement of the area under the contraction-time curve for a 10-min period immediately after the injection of OT. The following protocol was adopted for most experiments. […] The contractile response obtained from the third injection was set as 100%. Areas determined after each injection was expressed as a percentage of the area obtained for the third injection. […] The dose of test compound required to reduce the response to OT by 50% (AD50) was calculated from the contractile areas obtained after the fourth injection of OT (i.e., 5 min postinfusion of test compound). […]

For data set [3] the following is noted: compared with ritodrine; cited from earlier work.

For the compound `O=S(=O)([O-])[O-].[Mg+2]` [Magnesium sulfate], the “toxicity above therapeutic plasma range” value in data set [1] (plasma concentrations above 4 to 8 mg/dL) is “can cause inhibition of cardiac conduction and neuromuscular transmission, respiratory depression and cardiac arrest”. `COc1cc(OC2CCN(c3c(O)c(=O)c3=O)CC2)ccc1CC(=O)N1CCN(c2ccccc2C)CC1C(N)=O` (stereo not drawn) [Example 14, 1-(2-Methoxy-4-(1-(3-hydroxy-3-cyclobutene-1,2-dion-4-y)-4-piperidyloxy)phenylacetyl)-4-(2-methylphenyl)piperazine-2-carboxamide]: the IC50 in data set [2] (read-out: Result For [^3 H]OT (IC50), rat uterus membranes, 1 nM [^3 H]OT) stood at 24 nM. With `COc1ccc(CC(=O)N2CCC3(C=Cc4ccccc43)CC2)c(OC)c1` [Example 1, 1'-(2,4-Dimethoxyphenylacetyl)-spiro[1H]indene-1,4'-piperidine], in data set [2], the IC50 turned out to be 400 nM. Turning to `CC(C)(C)NCC(O)c1cc(O)cc(O)c1` (stereo not drawn) [terbutaline], the side effects result in data set [1] (tocolytic use, in the mother) was “side effects similar to those of ritodrine”. In data set [2], `COc1cc(OC2CCN(S(=O)(=O)CCNC3CC3)CC2)ccc1CC(=O)N1CCN(c2ccccc2C)CC1C(N)=O` (stereo not drawn) [Example 12, 1-(2-Methoxy-4-(1-(2-(N-cyclopropylamino)-ethylsulfonyl)-4-piperidyloxy)phenylacetyl)-4-(2-methylphenyl)piperazine-2-carboxamide] had a half-maximal inhibitory concentration (IC50) of 20 nM. On the same count and under the same terms, the figure for `O=C(Nc1ccc(CC(=O)N2CCC3(C=Cc4ccccc43)CC2c2ccccc2)cc1)c1ccc2[nH]cnc2c1` (stereo not drawn) [Example 2, 1'-(4-(Benzimidazole-5-carboxylamino)phenylacetyl)-2'-phenylspiro[1H]indene-1,4'-piperidine] is 120 nM; for `COc1cc(OC2CCN(Cc3cccnc3)CC2)ccc1CC(=O)N1CCN(c2ccccc2C)CC1C(N)=O` (stereo not drawn) [Example 15, 1-(2-Methoxy-4-(-1-((pyrid-3-yl)methyl)-4-piperidyloxy)phenylacetyl)-4-(2-methylphenyl) piperazine-2-carboxamide] it is 28 nM.

In the case of `COc1cc(OC2CCN(C(C)=O)CC2)ccc1CC(=O)N1CCN(c2ccccc2C)CC1C(N)=O` (stereo not drawn) [Example 9, 1-(2-Methoxy-4-(1-acetyl-4-piperidyloxy)phenylacetyl)-4-(2-methylphenyl)piperazine-2-carboxamide], the IC50 in data set [2] came out at 34 nM. On the same count and under the same terms, for `Cc1ccccc1N1CCN(C(=O)Cc2ccc(NC(=O)c3ccc4[nH]cnc4c3)cc2)C(C(N)=O)C1` (stereo not drawn) [Example 8, 1-(4-(Benzimidazol-5-carboxylamino)phenylacetyl)-4-(2-methylphenyl)piperazine-2-carboxamide] the value was 30 nM.

For `CC[C@H](C)[C@@H]1NC(=O)[C@H](Cc2ccc(O)cc2)NC(=O)[C@@H](N)CSSC[C@@H](C(=O)N2CCC[C@H]2C(=O)N[C@@H](CC(C)C)C(=O)NCC(N)=O)NC(=O)[C@H](CC(N)=O)NC(=O)[C@H](CCC(N)=O)NC1=O` [OT, oxytocin], the “ED50 dose of OT (uterine contraction)” value in the data set with uterus was approximately 1 µg/kg.

In data set [2], `COc1ccc(CC(=O)N2CCN(c3ccccc3C)CC2)c(OC)c1` [Example 6, 1-(2,4-Dimethoxyphenylacetyl)-4-(2-methylphenyl)piperazine] came in with a half-maximal inhibitory concentration (IC50) of 540 nM. The same measure, in the same setting: for `COc1ccc(CC(=O)N2CCN(c3ccccc3C)CC2C(N)=O)c(OC)c1` (stereo not drawn) [Example 7, 1-(2,4-Dimethoxyphenylacetyl)-4-(2-methylphenyl)piperazine-2-carboxamide] the value was 80 nM. Turning to `CC(C)(C)NCC(O)c1ccc(O)c(CO)c1` (stereo not drawn) [albuterol], the side effects entry in data set [1] (in vivo) is reported as “side effects similar to those of ritodrine”. In the case of `CC(NCCc1ccc(O)cc1)C(O)c1ccc(O)cc1` (stereo not drawn) [Ritodrine], the side effects result in data set [1] (tocolytic use, in the mother) is “causes a number of cardiovascular and metabolic side effects in the mother, including tachycardia, increased renin secretion, hyperglycemia (and reactive hypoglycemia in the infant)”.

In data set [2], `O=C(Nc1ccc(CC(=O)N2CCC3(C=Cc4ccccc43)CC2)cc1)c1ccc2cc[nH]c2c1` [Example 4, 1'-(4-(Indole-6-carboxylamino)phenylacetyl)spiro[1H]indene-1,4'-piperidine] came in with a concentration for half-maximal inhibition (IC50) of 1600 nM. Same read-out and setting: for `CCN(CC)CCS(=O)(=O)N1CCC(Oc2ccc(CC(=O)N3CCN(c4ccccc4C)CC3C(N)=O)c(OC)c2)CC1` (stereo not drawn) [Example 11, 1-(2-Methoxy-4-(1-(2-(N,N-Diethylamino)ethylsulfonyl)-4-piperidyloxy)phenylacetyl)-4-(2-methylphenyl)piperazine-2-carboxamide] the value was 21 nM. Take `CCO` [Ethanol]: in data set [3], the “effectiveness in preventing premature labor” value is “as effective as ritodrine in preventing premature labor” and the “reduction in incidence of fetal respiratory distress” value was “does not produce a corresponding reduction in the incidence of fetal respiratory distress”.

As a reminder, the IC50 is the concentration at which inhibition is half-maximal.
